Results: patent US6903108B2, “Fungicidal mixtures based on amide compounds and pyridine derivatives” (BASF Aktiengesellschaft, priority 1997, dated 2005)
Where “and” joins values, the source holds several entries; their conditions need not be identical. Equal entries are not always repeated.

Columns and labels:
Botrytis cinerea [1] = assay: Activity against Botrytis cinerea on bell peppers, green fruit disks (Use Example 2); type: in vivo
Botrytis cinerea [2] = assay: Activity against Botrytis cinerea on bell pepper leaves (Use Example 1); details: in vivo

| SMILES | Efficacy in % of the untreated control (Botrytis cinerea [1]; in vivo) [%] | Efficacy in % of the untreated control (Botrytis cinerea [2]) | also measured |
| --- | --- | --- | --- |
| O=C(Nc1ccccc1-c1ccc(F)cc1)c1cccnc1Cl [Compound I.1] | 0 |  |  |
| O=C(Nc1ccccc1-c1ccc(Cl)cc1)c1cccnc1Cl [Compound I.2] |  | 67% and 44% |  |
| N#Cc1c[nH]cc1-c1cccc2c1OC(F)(F)O2 [Compound IV, fludioxinil] | 0 |  |  |
| CN(C)S(=O)(=O)N(SC(F)(Cl)Cl)c1ccccc1 [Compound IXa, dichlofluanid] |  | 0% |  |
| O=C1c2ccccc2C(=O)N1SC(Cl)(Cl)Cl [Compound VII, folpet] | 0 | 0% |  |
| O=[N+]([O-])c1cc(C(F)(F)F)c(Cl)c([N+](=O)[O-])c1Nc1ncc(C(F)(F)F)cc1Cl [Compound VIII, fluazinam] |  |  | Efficacy in % of the untreated control (Botrytis cinerea [1]; 16 ppm active ingredient in the spray liquor, green bell pepper fruit disks, 4 days at 18° C.): 0%; Efficacy in % of the untreated control (Botrytis cinerea [1]; 31 ppm active ingredient in the spray liquor, green bell pepper fruit disks, 4 days at 18° C.): 0% |
